System: hCMs
Experiment: Mitochondrial (MitoSox) and intracellular (DCFH-DA) ROS measurement in hCMs
Assay type: cell-based, human
Details: remdesivir 10 μM; Asta 10 μM, Vc 50 μg/ml, Vb1 10 μg/ml, NAC 1 mM, GSH 25 μg/ml; 4 or 6 days
Experimental: Mitochondrial‐associated ROS and intracellular ROS were measured using MitoSox Red Mitochondrial Superoxide Indicator (M‐36008, ThermoFisher) and DCFH‐DA (S0033S, Beyotime), respectively. For mitochondrial‐associated ROS measurement, hCMs were loaded with 4 × 10^−6 M MitoSox dye in Hanks' balanced salt solution buffer for 15 min at 37 °C and washed twice with PBS. The MitoSox fluorescence (excitation/emission = 510/580 nm) was detected and quantified by the Operetta CLS High‐Content Analysis System. For intracellular ROS measurement, hCMs were loaded with 10 × 10^−6 M DCFH‐DA in serum‐free medium for 20 min at 37 °C and washed twice with serum‐free medium. The DCFH fluorescence (excitation/emission = 488/525 nm) was detected and quantified by the Operetta CLS High‐Content Analysis System.

Row | Compound | could alter the level of ROS in hCMs when co-stimulated with remdesivir
1 | CC(=O)N[C@@H](CS)C(=O)O [N‐acetylcysteine] | neither
2 | N[C@@H](CCC(=O)N[C@@H](CS)C(=O)NCC(=O)O)C(=O)O [reduced L‐Glutathione] | neither
3 | Cc1ncc(C[n+]2csc(CCO)c2C)c(N)n1 [vitamin B1] | neither
4 | O=C1O[C@H]([C@@H](O)CO)C(O)=C1O [vitamin C] | neither

System: not given
Experiment: not given
Details: cited from earlier work

Row | Compound | associated adverse cardiac effect
5 | CCOC(=O)C1=C[C@@H](OC(CC)CC)[C@H](NC(C)=O)[C@@H](N)C1 [oseltamivir] | tachycardia
6 | ivermectin | tachycardia

Same assay, conditions: reported clinical cardiotoxic effects of the repurposed drug; 10a,b, 10c, 41, 42; cited from earlier work

Row | Compound | Cardiotoxic effects
7 | CC[C@H]1OC(=O)[C@H](C)[C@@H](O[C@H]2C[C@@](C)(OC)[C@@H](O)[C@H](C)O2)[C@H](C)[C@@H](O[C@@H]2O[C@H](C)C[C@H](N(C)C)[C@H]2O)[C@](C)(O)C[C@@H](C)CN(C)[C@H](C)[C@@H](O)[C@]1(C)O [Azithromycin, azithromycin] | Ventricular arrhythmias^[ [42] ^]
8 | CCN(CCO)CCCC(C)Nc1ccnc2cc(Cl)ccc12 (stereo not shown) [Hydroxychloroquine, hydroxychloroquine] | QTc prolongation^[ [41] ^]

System: not given
Experiment: not given
Details: in vivo; cited from earlier work

Row | Compound | Cmax
9 | C[C@H]1[C@H](OC(=O)CCC(=O)O)O[C@@H]2O[C@@]3(C)CC[C@H]4[C@H](C)CC[C@@H]1[C@@]24OO3 [Artesunate, artesunate] | 0.17 µM
10 | Cc1c(-c2ccc(-c3ccccc3F)cc2)nc2ccc(F)cc2c1C(=O)O [Brequinar, brequinar] | 16 µM
11 | NC(=O)c1nc(F)c[nH]c1=O [Favipiravir, favipiravir] | 115 µM
12 | CCN(CCO)CCCC(C)Nc1ccnc2cc(Cl)ccc12 (stereo not shown) [Hydroxychloroquine, hydroxychloroquine] | 1.35 µM
13 | C[C@H]1C[C@@H]2[C@H]([C@@H](O)C[C@@]3(C)[C@H]2CC[C@]3(O)C(=O)CO)[C@@]2(C)C=CC(=O)C=C12 [Methylprednisolone, methylprednisolone] | 1.26 µM
14 | CC(C)C(=O)OC[C@H]1O[C@@H](n2ccc(NO)nc2=O)[C@H](O)[C@@H]1O [Molnupiravir, molnupiravir] | 10 to 15 µM
15 | CC(C)(C)[C@H](NC(=O)C(F)(F)F)C(=O)N1C[C@H]2[C@@H]([C@H]1C(=O)N[C@H](C#N)C[C@@H]1CCNC1=O)C2(C)C [Nirmatrelvir, nirmatrelvir] | 6.66 µM
16 | CC(=O)Oc1ccccc1C(=O)Nc1ncc([N+](=O)[O-])s1 [Nitazoxanide, nitazoxanide] | 17.5 µM
17 | N#CC[C@H](C1CCCC1)n1cc(-c2ncnc3[nH]ccc23)cn1 [Ruxolitinib, ruxolitinib] | 7.1 µM

Same assay, conditions: read-out: C max, maximum plasma concentration; ref U.S. FDA or published literature; cited from earlier work

Row | Compound | Cmax
18 | CC[C@H]1OC(=O)[C@H](C)[C@@H](O[C@H]2C[C@@](C)(OC)[C@@H](O)[C@H](C)O2)[C@H](C)[C@@H](O[C@@H]2O[C@H](C)C[C@H](N(C)C)[C@H]2O)[C@](C)(O)C[C@@H](C)CN(C)[C@H](C)[C@@H](O)[C@]1(C)O [Azithromycin, azithromycin] | 0.67 µM
19 | CCS(=O)(=O)N1CC(CC#N)(n2cc(-c3ncnc4[nH]ccc34)cn2)C1 [Baricitinib, baricitinib] | 3.69 µM
20 | CCN(CC)CCCC(C)Nc1ccnc2cc(Cl)ccc12 (stereo not shown) [Chloroquine, chloroquine] | 1.17 µM
21 | CC(C)CN(C[C@@H](O)[C@H](Cc1ccccc1)NC(=O)O[C@H]1CO[C@H]2OCC[C@H]21)S(=O)(=O)c1ccc(N)cc1 [Darunavir, darunavir] | 12.7 µM
22 | COCCCC/C(=N\OCCN)c1ccc(C(F)(F)F)cc1 [Fluvoxamine, fluvoxamine] | 0.73 µM
23 | CC1(C)C(=O)N(c2ccc(C#N)c(C(F)(F)F)c2F)C(=S)N1c1ccc(CCCc2ncco2)nc1 [Proxalutamide, proxalutamide] | 29 µM
24 | C[C@@H]1CCN(C(=O)CC#N)C[C@@H]1N(C)c1ncnc2[nH]ccc12 [Tofacitinib, tofacitinib] | 0.135 µM
25 | ivermectin | 0.049 µM

Source: publication PMC9539280 (Advanced Science, 2022)
